Test results as given in article PMC9403976, “Elucidating the path to Plasmodium prolyl-tRNA synthetase inhibitors that overcome halofuginone resistance” (Nature Communications, 2022).
pKd: −log10 of the molar value. Where “and” joins values, the source holds several entries; their conditions need not be identical. Equal values may be shown once. Read-outs that look alike come from different tables or passages of the source.

Legend:
[1] = target: HsProRS (Homo sapiens, UniProt P07814); assay: TR-FRET ligand displacement assay with tracer MAT379 (CoraFluor-1-Halo and anti-His6 antibody formats); format: binding; design: made in house; host or cells: E. coli SoluBL-21
[2] = target: T1, PfcProRS (Plasmodium falciparum, UniProt Q8I5R7); format: binding; details: for Normalized response, dose-response replicates (SI Fig 14): replicates 1-3; for PfcProRS -- best Kd: SI Fig 16a, values on -log scale
T1 construct: made in house; host or cells: E. coli SoluBL-21

[3] = system: HFGR-I P. falciparum (elevated proline homeostasis and PfcProRS^L482H); assay: P. falciparum ABS growth assay, SYBR Green, 72 h, HFGR-I parasites; format: cell-based, Plasmodium falciparum
Description: Parasites were maintained under standard culture conditions as described previously[56],[57]. […] The P. falciparum Dd2 cell lines used in this study (Dd2-2D4, halofuginone-induced, and HFGR-I) have previously undergone whole genome sequencing in our labs. They were also routinely assayed and EC50 values determined using the ABS growth assay (see below) with a panel of standard antimalarial compounds, including halofuginone which has differential activity for the three Dd2 lines used in these experiments. Data were cross-referenced for consistency with literature reported values and data previously acquired in the lab.
This assay was performed as previously described. In short, P. falciparum erythrocytic-stage parasites at 1% parasitemia and 1% hematocrit in RPMI + 0.5% Albumax were seeded at 40 μL/well in 384-well plates with test compounds in triplicate, dose-response format with 10 μM dihydroartemisinin as a kill-control and blank (no compound) wells as a growth-control. […] After 72 h, growth was quantified by measuring fluorescence (Molecular Devices SpectraMax iD5) following SYBR Green 1 staining. Data were analyzed in Excel and plotted in PRISM (V. 8.4.3–9.1.0, GraphPad).

[4] = system: P. falciparum Dd2-2D4; assay: P. falciparum asexual blood stage (ABS) growth assay, SYBR Green, 72 h, wild-type parasites; format: cell-based, Plasmodium falciparum; details: Plasmodium falciparum, DD2; SI Fig 16b; values on -log scale; read-out: ABS - Dd2-2D4 (converted)
[5] = HsProRS (KD [nM]) + 100 μM proline mean, + 100 μM proline

T1 sequence (Q8I5R7 249-746): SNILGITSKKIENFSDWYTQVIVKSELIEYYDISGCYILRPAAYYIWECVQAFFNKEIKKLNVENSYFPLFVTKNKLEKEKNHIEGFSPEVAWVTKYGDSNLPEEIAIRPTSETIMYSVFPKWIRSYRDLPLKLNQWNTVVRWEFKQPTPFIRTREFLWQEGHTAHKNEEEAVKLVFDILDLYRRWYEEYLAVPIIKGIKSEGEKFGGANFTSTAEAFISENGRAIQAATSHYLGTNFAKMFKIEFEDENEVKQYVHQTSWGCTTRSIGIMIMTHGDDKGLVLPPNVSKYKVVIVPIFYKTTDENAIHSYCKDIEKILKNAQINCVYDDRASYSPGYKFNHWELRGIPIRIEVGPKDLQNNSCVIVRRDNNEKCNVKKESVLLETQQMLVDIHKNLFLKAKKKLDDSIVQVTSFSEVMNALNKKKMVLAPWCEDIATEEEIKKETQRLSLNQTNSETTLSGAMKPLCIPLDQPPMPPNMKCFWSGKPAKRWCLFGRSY
HsProRS, sequence (P07814 996-1512): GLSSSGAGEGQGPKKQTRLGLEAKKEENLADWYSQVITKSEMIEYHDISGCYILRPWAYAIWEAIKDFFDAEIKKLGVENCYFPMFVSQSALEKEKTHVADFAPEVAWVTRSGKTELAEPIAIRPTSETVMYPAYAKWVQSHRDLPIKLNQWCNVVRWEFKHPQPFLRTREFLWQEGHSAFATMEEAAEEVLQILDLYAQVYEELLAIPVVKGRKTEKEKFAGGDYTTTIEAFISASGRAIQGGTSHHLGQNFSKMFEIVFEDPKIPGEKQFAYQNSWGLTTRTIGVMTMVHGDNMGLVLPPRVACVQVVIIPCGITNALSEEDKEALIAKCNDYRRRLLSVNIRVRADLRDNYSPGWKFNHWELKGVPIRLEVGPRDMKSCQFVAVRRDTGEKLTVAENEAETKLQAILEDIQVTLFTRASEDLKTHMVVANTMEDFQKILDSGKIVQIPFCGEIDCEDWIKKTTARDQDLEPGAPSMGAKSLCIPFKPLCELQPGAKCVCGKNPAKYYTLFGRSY

Structure (SMILES) | Kd [1, 5] [nM] | Normalized response, dose-response replicates (SI Fig 14) ([2]; Log[inhibitor] (M) -5.000) | Normalized response, dose-response replicates (SI Fig 14) ([2]; Log[inhibitor] (M) -5.301) | Normalized response, dose-response replicates (SI Fig 14) ([2]; Log[inhibitor] (M) -5.601) | Normalized response, dose-response replicates (SI Fig 14) ([2]; Log[inhibitor] (M) -5.904) | Normalized response, dose-response replicates (SI Fig 14) ([2]; Log[inhibitor] (M) -6.208) | Normalized response, dose-response replicates (SI Fig 14) ([2]; Log[inhibitor] (M) -6.509) | Normalized response, dose-response replicates (SI Fig 14) ([2]; Log[inhibitor] (M) -6.796) | Normalized response, dose-response replicates (SI Fig 14) ([2]; Log[inhibitor] (M) -7.108) | Normalized response, dose-response replicates (SI Fig 14) ([2]; Log[inhibitor] (M) -7.409) | Normalized response, dose-response replicates (SI Fig 14) ([2]; Log[inhibitor] (M) -7.710) | Normalized response, dose-response replicates (SI Fig 14) ([2]; Log[inhibitor] (M) -8.000) | Normalized response, dose-response replicates (SI Fig 14) ([2]; Log[inhibitor] (M) -8.301) | Normalized response, dose-response replicates (SI Fig 14) ([2]; Log[inhibitor] (M) -8.602) | Normalized response, dose-response replicates (SI Fig 14) ([2]; Log[inhibitor] (M) -9.000) | Normalized response, dose-response replicates (SI Fig 14) ([2]; Log[inhibitor] (M) -9.301) | PfcProRS -- best Kd [2] | EC50 [4] [nM] | other results
CC(C)(C)OC(=O)NCCCCCC(=O)NC1CCN(C(=O)Nc2nccnc2C(=O)NC2Cc3ccccc3C2)CC1 [compound 41] | 561 | 2.54E-01 and 1.79E-01 and 1.37E-01 | 2.59E-01 and 1.90E-01 and 1.97E-01 | 2.56E-01 and 2.59E-01 and 2.72E-01 | 5.14E-01 and 5.00E-01 and 4.61E-01 | 7.49E-01 and 5.18E-01 and 5.00E-01 | 8.38E-01 and 7.48E-01 and 7.12E-01 | 9.37E-01 and 8.75E-01 and 9.23E-01 | 9.89E-01 and 8.01E-01 and 8.98E-01 | 9.10E-01 and 9.82E-01 and 9.58E-01 | 9.67E-01 and 1.08E+00 and 8.83E-01 | 9.89E-01 and 1.01E+00 and 9.34E-01 | 1.15E+00 and 9.52E-01 and 9.87E-01 | 1.13E+00 and 1.02E+00 and 1.04E+00 | 9.78E-01 and 9.94E-01 and 1.01E+00 | 1.02E+00 and 9.71E-01 and 8.87E-01 | 6.740 | 2110 | pKd ([1]; HsProRS - best Kd, SI Fig 16a, values on -log scale): 6.86; dose-response value, Replicates 1-3 (SI Fig 2f) ([3]; Log[inhibitor] (M) -6.638): 97
NCCCCCC(=O)NC1CCN(C(=O)Nc2nccnc2C(=O)NC2Cc3ccccc3C2)CC1 [compound 42] | 780 | 2.49E-01 and 1.76E-01 and 2.08E-01 | 3.00E-01 and 2.27E-01 and 1.95E-01 | 3.22E-01 and 3.31E-01 and 4.26E-01 | 5.98E-01 and 5.09E-01 and 6.07E-01 | 6.69E-01 and 7.19E-01 and 7.06E-01 | 8.50E-01 and 8.42E-01 and 7.76E-01 | 8.57E-01 and 7.95E-01 and 8.50E-01 | 9.38E-01 and 9.24E-01 and 9.33E-01 | 8.48E-01 and 9.09E-01 and 8.32E-01 | 1.01E+00 and 1.02E+00 and 9.56E-01 | 9.91E-01 and 1.13E+00 and 9.71E-01 | 9.70E-01 and 1.02E+00 and 1.00E+00 | 1.01E+00 and 9.47E-01 and 9.02E-01 | 1.03E+00 and 8.54E-01 and 9.74E-01 | 1.02E+00 and 9.76E-01 and 9.47E-01 | 6.530 | 3120 | Kd ([1]; HsProRS (KD [nM]) mean, no added proline/ATP (-)): 674 nM; dose-response value, Replicates 1-3 (SI Fig 2f) ([3]; Log[inhibitor] (M) -8.699): 97
